# What was measured:
# [1] = target: T1, Cytochrome P450 11B2, mitochondrial (Homo sapiens, UniProt P19099); experiment: Inhibition of human CYP11B2 expressed in Chinese hamster V79 MZh cells using [14C]-deoxycorticosteron as substrate measured after 6 hrs by phosphoimager analysis; format: ADME, cell-based
# T1 sequence (P19099 whole entry): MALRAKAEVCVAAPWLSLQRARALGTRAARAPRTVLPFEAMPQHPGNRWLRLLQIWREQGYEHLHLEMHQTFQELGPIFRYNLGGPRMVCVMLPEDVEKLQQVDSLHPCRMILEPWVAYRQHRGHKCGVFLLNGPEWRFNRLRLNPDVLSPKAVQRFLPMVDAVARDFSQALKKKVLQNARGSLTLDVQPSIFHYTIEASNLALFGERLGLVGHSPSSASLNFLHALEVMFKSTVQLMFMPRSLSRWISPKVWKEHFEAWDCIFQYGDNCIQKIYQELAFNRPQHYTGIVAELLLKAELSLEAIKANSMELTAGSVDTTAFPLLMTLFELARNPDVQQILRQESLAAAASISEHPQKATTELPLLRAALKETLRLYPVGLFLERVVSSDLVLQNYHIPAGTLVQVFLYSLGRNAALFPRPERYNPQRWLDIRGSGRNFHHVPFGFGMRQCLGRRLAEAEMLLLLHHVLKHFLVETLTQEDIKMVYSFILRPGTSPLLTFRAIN
# [2] = Selectivity ratio of IC50 for inhibition of human CYP11B2 to IC50 for inhibition of human CYP11B1; format: ADME
# [3] = target: T2, Cytochrome P450 11B1, mitochondrial (Homo sapiens, UniProt P15538); experiment: Inhibition of human CYP11B1 expressed in Chinese hamster V79 MZh cells using [14C]-deoxycorticosteron as substrate measured after 6 hrs by phosphoimager analysis; format: ADME, cell-based
# T2 sequence (P15538 whole entry): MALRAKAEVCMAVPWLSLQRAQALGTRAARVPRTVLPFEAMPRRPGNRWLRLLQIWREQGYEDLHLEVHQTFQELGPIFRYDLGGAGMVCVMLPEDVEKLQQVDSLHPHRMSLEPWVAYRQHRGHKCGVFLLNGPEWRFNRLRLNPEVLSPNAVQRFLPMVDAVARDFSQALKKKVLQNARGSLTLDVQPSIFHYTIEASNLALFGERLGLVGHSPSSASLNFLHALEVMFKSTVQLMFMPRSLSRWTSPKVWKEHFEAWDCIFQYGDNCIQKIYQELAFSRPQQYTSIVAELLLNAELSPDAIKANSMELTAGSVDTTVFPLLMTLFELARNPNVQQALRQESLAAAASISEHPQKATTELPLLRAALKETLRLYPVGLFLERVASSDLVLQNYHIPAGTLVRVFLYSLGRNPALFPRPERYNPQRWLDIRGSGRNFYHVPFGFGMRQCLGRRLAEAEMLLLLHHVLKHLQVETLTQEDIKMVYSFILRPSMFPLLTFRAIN
SMILES,IC50 [1],Ratio IC50 [2],IC50 [3]
O=C(Nc1ccccc1F)[C@]12ON=C(c3cccnc3)[C@H]1[C@@H]1CC[C@H]2C1,5.75 µM,43,0.135 µM
O=C(Nc1ccc2[nH]ncc2c1)[C@]12ON=C(c3cncc(Br)c3)[C@H]1[C@@H]1CC[C@H]2C1,0.918 µM,30,0.031 µM
O=C(Nc1ccc(F)cc1)[C@]12ON=C(c3cccnc3)[C@H]1[C@@H]1CC[C@H]2C1,2.99 µM,53,0.057 µM
CN(C(=O)[C@]12ON=C(c3cccnc3)[C@H]1[C@@H]1CC[C@H]2C1)c1ccccc1,4.25 µM,23,0.183 µM
O=C(Nc1cnc2[nH]ccc2c1)[C@]12ON=C(c3cccnc3)[C@H]1[C@@H]1CC[C@H]2C1,1.65 µM,97,0.017 µM
O=C(Nc1cccc(Cl)c1Cl)[C@]12ON=C(c3cccnc3)[C@H]1[C@@H]1CC[C@H]2C1,5.12 µM,33,0.157 µM
Cc1cccc(NC(=O)[C@]23ON=C(c4cccnc4)[C@H]2[C@@H]2CC[C@H]3C2)c1,9.64 µM,63,0.153 µM
N#Cc1cccc(NC(=O)[C@]23ON=C(c4cccnc4)[C@H]2[C@@H]2CC[C@H]3C2)c1,2.18 µM,62,0.035 µM
O=C(Nc1ccc2[nH]ncc2c1)[C@]12ON=C(c3cncc(-c4cccc(F)c4)c3)[C@H]1[C@@H]1CC[C@H]2C1,0.412 µM,52,0.008 µM
O=C(Nc1cccc(F)c1)[C@]12ON=C(c3cccnc3)[C@H]1[C@@H]1CC[C@H]2C1,2.84 µM,58,0.049 µM
O=C(Nc1ccc2[nH]ncc2c1)[C@]12ON=C(c3cncc(-c4ccc(F)cc4)c3)[C@H]1[C@@H]1CC[C@H]2C1,0.113 µM,19,0.006 µM
O=C(Nc1nc2ccccc2[nH]1)[C@]12ON=C(c3cccnc3)[C@H]1[C@@H]1CC[C@H]2C1,2.94 µM,28,0.106 µM
O=C(Nc1cccc(F)n1)[C@]12ON=C(c3cccnc3)[C@H]1[C@@H]1CC[C@H]2C1,4.01 µM,47,0.086 µM
COc1cccc(-c2cncc(C3=NO[C@]4(C(=O)Nc5ccc6[nH]ncc6c5)[C@H]5CC[C@H](C5)[C@H]34)c2)c1,0.477 µM,32,0.015 µM
N#Cc1ccc(NC(=O)[C@]23ON=C(c4cccnc4)[C@H]2[C@@H]2CC[C@H]3C2)cc1,3.8 µM,83,0.046 µM
Cc1ccncc1NC(=O)[C@]12ON=C(c3cccnc3)[C@H]1[C@@H]1CC[C@H]2C1,4.45 µM,39,0.115 µM
Nc1ccccc1NC(=O)[C@]12ON=C(c3cccnc3)[C@H]1[C@@H]1CC[C@H]2C1,4.31 µM,31,0.138 µM
Cc1ccc(NC(=O)[C@]23ON=C(c4cccnc4)[C@H]2[C@@H]2CC[C@H]3C2)cc1,6.22 µM,49,0.128 µM

SMILES,IC50 [1],Ratio IC50 [2],IC50 [3]
O=C(Nc1ccc2[nH]ncc2c1)[C@]12ON=C(c3cncc(-c4ccsc4)c3)[C@H]1[C@@H]1CC[C@H]2C1,1.43 µM,39,0.037 µM
Cc1ccccc1NC(=O)[C@]12ON=C(c3cccnc3)[C@H]1[C@@H]1CC[C@H]2C1,9.77 µM,52,0.189 µM
O=C(Nc1ccccc1)[C@]12ON=C(c3cccnc3)[C@H]1[C@@H]1CC[C@H]2C1,5.94 µM,36,0.167 µM
O=C(Nc1ccc2[nH]ncc2c1)[C@]12ON=C(c3cncc(-c4ccoc4)c3)[C@H]1[C@@H]1CC[C@H]2C1,0.796 µM,17,0.046 µM
O=C(Nc1ccc(Cl)cc1)[C@]12ON=C(c3cccnc3)[C@H]1[C@@H]1CC[C@H]2C1,6.72 µM,81,0.083 µM
COc1ccc(NC(=O)[C@]23ON=C(c4cccnc4)[C@H]2[C@@H]2CC[C@H]3C2)cc1,4.02 µM,51,0.079 µM
N#Cc1ccc(-c2cncc(C3=NO[C@]4(C(=O)Nc5ccc6[nH]ncc6c5)[C@H]5CC[C@H](C5)[C@H]34)c2)cc1,0.057 µM,28,0.002 µM
O=C(Nc1ccc2[nH]ncc2c1)[C@]12ON=C(c3cncc(-c4cccc(C(F)(F)F)c4)c3)[C@H]1[C@@H]1CC[C@H]2C1,0.398 µM,23,0.017 µM
O=C(Nc1ccc([N+](=O)[O-])cc1)[C@]12ON=C(c3cccnc3)[C@H]1[C@@H]1CC[C@H]2C1,5.59 µM,58,0.096 µM
O=C(Nc1cccc(Cl)c1)[C@]12ON=C(c3cccnc3)[C@H]1[C@@H]1CC[C@H]2C1,6.67 µM,69,0.097 µM
O=C(Nc1ncccn1)[C@]12ON=C(c3cccnc3)[C@H]1[C@@H]1CC[C@H]2C1,7.71 µM,43,0.179 µM
O=C(Nc1ccc2cc[nH]c2c1)[C@]12ON=C(c3cccnc3)[C@H]1[C@@H]1CC[C@H]2C1,2.07 µM,82,0.025 µM
O=C(Nc1ccc2[nH]ccc2c1)[C@]12ON=C(c3cccnc3)[C@H]1[C@@H]1CC[C@H]2C1,2.28 µM,103,0.022 µM
COc1cccc(NC(=O)[C@]23ON=C(c4cccnc4)[C@H]2[C@@H]2CC[C@H]3C2)c1,2.39 µM,75,0.032 µM
COc1ccccc1NC(=O)[C@]12ON=C(c3cccnc3)[C@H]1[C@@H]1CC[C@H]2C1,5.95 µM,53,0.113 µM
N#Cc1cccc(-c2cncc(C3=NO[C@]4(C(=O)Nc5ccc6[nH]ncc6c5)[C@H]5CC[C@H](C5)[C@H]34)c2)c1,0.329 µM,27,0.012 µM
"O=C(Nc1cccc([N+](=O)[O-])c1)[C@]12ON=C(c3cccnc3)C1[C@@H]1CCC2C1 (single isomer, unassigned)",2.6 µM,41,0.065 µM

# Source: ChEMBL document CHEMBL5126611, “Design, Synthesis, and Biological Evaluations of Pyridyl 4,5,6,7-Tetrahydro-4,7-Methanobenzo[d]isoxazoles as Potent and Selective Inhibitors of 11β-Hydroxylase” (J Med Chem, 2022)
